# Legend:
# [1] = tested on: β-catenin/Tcf-4; assay: cells; type: cell-based; settings: 24 hours of incubation with compound, ratio Firefly/Renilla luciferase
# Method in brief: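 SW480-derived lines with integrated reporters (Tcf-4-driven firefly luciferase; SV40 firefly as specificity control; SV40 Renilla for cell number/toxicity), treated 24 hours with titrated compounds, final 0.316% DMSO. Dual-luciferase read-out; firefly/Renilla ratio as % of control, duplicate plates, IC50 (nM) from curve fit.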
# [2] = tested on: SV40-Luc; assay: SV40-Luc control luciferase reporter assay, SV 5A8 cell line (SV40-Luc and SV40-R-Luc), control for non-specific inhibitors; type: cell-based, human; settings: SV 5A8 cells derived from SW480, 24 hours of incubation with compound, ratio Firefly/Renilla luciferase
# Method in brief: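 Stable SW480 reporter clones are exposed to compound dilutions for 24 h at 0.316% DMSO. Firefly signal, Tcf-4- or SV40-driven, is divided by SV40-Renilla signal, and IC50 is derived from this ratio relative to control.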
# [3] = Homo sapiens, SW480, 24 h, Tcf 33.13 cells derived from SW480
# [4] = Homo sapiens, Tcf22C11, 24 h, Tcf 22C11 cells derived from SW480
# [5] = Tcf 22C11 cells derived from SW480
# [6] = Tcf 33.13 cells derived from SW480
SMILES,"IC50 [1, 3] [nM]","IC50 [1, 4] [nM]","IC50 ([2]; Homo sapiens, SV5A8, 24 h) [nM]","IC50 [1, 5] [nM]","IC50 [1, 6] [nM]",IC50 [2] [nM]
"Cc1ccc2c(NCc3ccc(NC(=O)C4CCN(Cc5ccc(Cl)nc5)CC4)cc3)nc(N(C)C)nc2c1 [Example 259, 1-[(6-chloropyridin-3-yl)methyl]-N-[4-({[2-(dimethylamino)-7-methylquinazolin-4-yl]amino}methyl)phenyl]piperidine-4-carboxamide]",415,573,> 8100,–,–,–
"Cc1ccc2c(NCc3ccc(NC(=O)C4CCN(Cc5ccccc5)CC4)cc3)nc(N3CCN(c4ncccn4)CC3)nc2c1 [Example 136, 1-benzyl-N-[4-({[7-methyl-2-(4-pyrimidin-2-ylpiperazin-1-yl)quinazolin-4-yl]amino}methyl)phenyl]piperidine-4-carboxamide]",365,494,> 15900,–,–,–
"CCCCN1CCC(C(=O)Nc2ccc(CNc3nc(N(C)C)nc4cc(C)ccc34)cc2)CC1 [Example 249, 1-butyl-N-[4-({[2-(dimethylamino)-7-methylquinazolin-4-yl]amino}methyl)phenyl]piperidine-4-carboxamide]",1170,1480,> 10500,–,–,–
"CN(C)c1nc(NCc2ccc(NC(=O)C3CCN(Cc4ccccc4)CC3)cc2)c2ccc(/C=C/C(C)(C)C)cc2n1 [Example 152, 1-benzyl-N-{4-[({2-(dimethylamino)-7-[(1E)-3,3-dimethylbut-1-en-1-yl]quinazolin-4-yl}amino)methyl]phenyl}piperidine-4-carboxamide]",> 962,1050,> 3850,–,–,–
"O=C(Nc1ccc(CNc2nc(N3CCN(c4ncccn4)CC3)nc3ccc(C(F)(F)F)cc23)cc1)C1CCN(Cc2ccc(F)cc2)CC1 [Example 157, 1-(4-fluorobenzyl)-N-[4-({[2-(4-pyrimidin-2-ylpiperazin-1-yl)-6-(trifluoromethyl)quinazolin-4-yl]amino}methyl)phenyl]piperidine-4-carboxamide]",> 3570,> 7140,> 7140,–,–,–
"CN(C)c1ccc(-c2ccc3nc(N(C)C)nc(NCc4ccc(NC(=O)c5ccc(F)cc5)cc4)c3c2)cn1 [Example 59, N-{4-[({2-(dimethylamino)-6-[6-(dimethylamino)pyridin-3-yl]quinazolin-4-yl}amino)methyl]phenyl}-4-fluorobenzamide]",453,229,> 2330,–,–,–
"Cc1ccc2c(NCc3ccc(NC(=O)C4CCN(Cc5ccccc5)CC4)cc3)nc(N3CCC3)nc2c1 [Example 134, N-(4-{[(2-azetidin-1-yl-7-methylquinazolin-4-yl)amino]methyl}phenyl)-1-benzylpiperidine-4-carboxamide]",782,805,> 9600,–,–,–
"Cc1ccc2nc(N3CCN(C)CC3)nc(NCc3ccc(NC(=O)c4ccc(F)cc4)cc3)c2c1 [Example 46, 4-fluoro-N-((6-methyl-2-(4-methylpiperazin-1-yl)quinazolin-4-ylamino)methyl-phenyl)benzamide]",–,–,–,> 20800,> 20800,> 20800
"C/C=C/c1ccc2c(N[C@@H](C)c3ccc(NC(=O)c4ccc(Cl)nc4)cc3)nc(N(C)C)nc2c1 [Example 107, 6-chloro-N-{4-[(1S)-1-({2-(dimethylamino)-7-[(1E)-prop-1-en-1-yl]quinazolin-4-yl}amino)ethyl]phenyl}nicotinamide]",336,414,> 4780,–,–,–
"CC(=O)N1CCCN(c2nc(NCc3ccc(NC(=O)c4ccc(F)cc4)cc3)c3ccc(C)cc3n2)CC1 [Example 223, N-[4-({[2-(4-acetyl-1,4-diazepan-1-yl)-7-methylquinazolin-4-yl]amino}methyl)phenyl]-4-fluorobenzamide]",2660,4460,> 15600,–,–,–
"Cc1ccc2nc(N(C)C)nc(NCc3ccc(NC(=O)c4ccc(F)cc4)cc3)c2c1 [Example 38, N-[4-({[2-(dimethylamino)-6-methylquinazolin-4-yl]amino}methyl)phenyl]-4-fluorobenzamide]",–,–,> 11600,1620,2050,–
"CNc1nc(NCc2ccc(NC(=O)c3ccc(Cl)cc3)cc2)c2cc(C)cc(C)c2n1 [Example 29, 4-chloro-N-[4-({[6,8-dimethyl-2-(methylamino)quinazolin-4-yl]amino}methyl)phenyl]benzamide]",756,988,> 2800,–,–,–
"CN(C)CC#Cc1ccc2nc(N(C)C)nc(NCc3ccc(NC(=O)c4ccc(F)cc4)cc3)c2c1 [Example 69, N-{4-[({2-(dimethylamino)-6-[3-(dimethylamino)prop-1-yn-1-yl]quinazolin-4-yl}amino)methyl]phenyl}-4-fluorobenzamide]",1940,2010,> 20100,–,–,–
"C=Cc1ccc2nc(N(C)C)nc(NCc3ccc(NC(=O)c4ccc(Cl)nc4)cc3)c2c1 [Example 73, 6-chloro-N-[4-({[2-(dimethylamino)-6-vinylquinazolin-4-yl]amino}methyl)phenyl]nicotinamide]",194,223,> 681,–,–,–
"Cc1ccc2c(NCc3ccc(NC(=O)C4CCN(Cc5ccco5)CC4)cc3)nc(N(C)C)nc2c1 [Example 246, N-[4-({[2-(dimethylamino)-7-methylquinazolin-4-yl]amino}methyl)phenyl]-1-(2-furylmethyl)piperidine-4-carboxamide]",1930,1830,> 20100,–,–,–
"Cc1ccc2nc(N(C)Cc3ccccn3)nc(NCc3ccc(NC(=O)c4ccc(F)cc4)cc3)c2c1 [Example 58, 4-fluoro-N-{4-[({6-methyl-2-[methyl(pyridin-2-ylmethyl)amino]quinazolin-4-yl}amino)methyl]phenyl}benzamide]",2080,2500,4190,–,–,–
"Cc1ccc2c(NCc3ccc(NC(=O)Nc4ccc(Br)cc4)cc3)nc(N(C)C)nc2c1 [Example 179, N-(4-bromophenyl)-N′-[4-({[2-(dimethylamino)-7-methylquinazolin-4-yl]amino}methyl)phenyl]urea]",924,538,> 4950,–,–,–
"O=C(Nc1ccc(CNc2nc(N3CCCC3)nc3ccc(C(F)(F)F)cc23)cc1)C1CCN(Cc2ccc(F)cc2)CC1 [Example 156, 1-(4-fluorobenzyl)-N-[4-({[2-pyrrolidin-1-yl-6-(trifluoromethyl)quinazolin-4-yl]amino}methyl)phenyl]piperidine-4-carboxamide]",3690,> 4120,> 8240,–,–,–
"Cc1ccc2nc(N(C)C)nc(NCc3ccc(NC(=O)C4CCN(Cc5ccccc5)CC4)cc3)c2c1 [Example 148, 1-benzyl-N-[4-({[2-(dimethylamino)-6-methylquinazolin-4-yl]amino}methyl)phenyl]piperidine-4-carboxamide]",1030,1070,> 9170,–,–,–
"Cc1ccc2c(NCc3ccc(NC(=O)C4CCN(Cc5ccncc5)CC4)cc3)nc(N(C)C)nc2c1 [Example 257, N-[4-({[2-(dimethylamino)-7-methylquinazolin-4-yl]amino}methyl)phenyl]-1-(pyridin-4-ylmethyl)piperidine-4-carboxamide]",906,1190,> 8080,–,–,–
"C/C=C/c1ccc2c(NCc3ccc(NC(=O)c4ccc(F)cc4)cc3)nc(N(C)C)nc2c1 [Example 96, N-{4-[({2-(dimethylamino)-7-[(1E)-prop-1-en-1-yl]quinazolin-4-yl}amino)methyl]phenyl}-4-fluorobenzamide]",511,497,> 2540,–,–,–
"O=C(Nc1ccc(CNc2nc(N3CCOCC3)nc3ccccc23)cc1)c1ccc(F)cc1 [Example 117, 4-fluoro-N-(4-{[(2-morpholin-4-ylquinazolin-4-yl)amino]methyl}phenyl)benzamide]",4480,7170,> 21900,–,–,–
"Cc1ccc2nc(N3CCC(N4CCCC4)CC3)nc(NCc3ccc(NC(=O)C4CCN(Cc5ccccc5)CC4)cc3)c2c1 [Example 83, 1-benzyl-N-[4-({[6-methyl-2-(4-pyrrolidin-1-ylpiperidin-1-yl)quinazolin-4-yl]amino}methyl)phenyl]piperidine-4-carboxamide]",425,511,> 4050,–,–,–
"Cc1ccc2c(NCc3ccc(NC(=O)c4ccc(F)cc4)cc3)nc(N3CCN(C=O)CC3)nc2c1 [Example 217, 4-fluoro-N-[4-({[2-(4-formylpiperazin-1-yl)-7-methylquinazolin-4-yl]amino}methyl)phenyl]benzamide]",3680,1860,> 16300,–,–,–
"O=C(O)CNc1nc(NCc2ccc(NC(=O)c3ccc(F)cc3)cc2)c2ccccc2n1 [Example 127, N-[4-({4-[(4-fluorobenzoyl)amino]benzyl}amino)quinazolin-2-yl]glycine]",> 22400,> 22400,> 22400,–,–,–
"CN(C)c1nc(NCc2ccc(NC(=O)c3ccc(F)cc3)cc2)c2cc(I)ccc2n1 [Example 68, N-[4-({[2-(dimethylamino)-6-iodoquinazolin-4-yl]amino}methyl)phenyl]-4-fluorobenzamide]",400,530,> 4620,–,–,–

# Reference: US20090004185A1, “AMINO-SUBSTITUTED QUINAZOLINE DERIVATIVES AS INHIBITORS OF BETA-CATENIN/TCF-4 PATHWAY AND CANCER TREATMENT AGENTS” (WYETH, priority 2007, published 2009)
